Laboratory results: patent US6391305B1, “Conjugates useful in the treatment of prostate cancer” (priority 1999, dated 2002)
Where two headings read alike, the source gives them in different places. Non-standard residues stand in square brackets, D forms with d. Residues, ends and D or L forms follow the SMILES beside them. Primed or numbered codes have the meaning given here. *: point of attachment. Doxorubicin(3'-N) = COc1cccc2c1C(=O)c1c(O)c3c(c(O)c1C2=O)C[C@@](O)(C(=O)CO)C[C@@H]3O[C@H]1C[C@H](N*)[C@H](O)[C@H](C)O1; PEG(1) = polyethylene glycol containing substituent with 1 ethyleneoxy subunit; X5 = (2R,3S)‑2,3,4‑trihydroxybutanoyl, O=C([C@H](O)[C@@H](O)CO)*; X2 = COCCOCCOCCOCCOCCOCCOCCOCCOCCOCCOCCOCCOCCOCCOCCOCCOCC(=O)*; Decanoyl(3,6,9-trioxa) = COCCOCCOCC(=O)*; Glyceroyl(2R) = O=C([C@H](O)CO)*; X4 = COCCOCCOCCOCCOCCOCCOCC(=O)*; hArg = N=C(N)NCCCC[C@H](N)C(=O)O; 3Pal = N[C@@H](Cc1cccnc1)C(=O)O; Chg = N[C@H](C(=O)O)C1CCCCC1; Glycolyl = O=C(CO)*

Tests used:
[1] = target: T1, enzymatically active free PSA (Homo sapiens, UniProt P07288); test: Recognition (cleavage) of oligopeptide-doxorubicin conjugates by free PSA, HPLC; assay type: biochemical; details: DOX conjugate; for Time to 50% Substrate Cleavage by York PSA: PSA digestion buffer pH7.4, 140 mM NaCl, molar ratio to PSA 100 to 1
T1 construct: required for 50% cleavage of the noted oligopeptides with enzymatically active free PSA
T1 sequence (P07288 25-261): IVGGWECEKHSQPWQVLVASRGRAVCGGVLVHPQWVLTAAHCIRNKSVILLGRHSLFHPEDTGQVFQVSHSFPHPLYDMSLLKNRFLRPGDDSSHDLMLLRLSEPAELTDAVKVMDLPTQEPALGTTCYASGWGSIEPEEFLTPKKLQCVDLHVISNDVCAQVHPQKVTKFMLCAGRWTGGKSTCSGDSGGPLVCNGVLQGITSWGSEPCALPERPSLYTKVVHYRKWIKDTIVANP
Experimental: If no salt is indicated for the conjugate, the free conjugate was tested.

[2] = system: LNCap prostate tumor cells; test: In vitro cytotoxicity, Alamar Blue assay, LNCaP; assay type: cell-based; details: 72 HRS, read-out: LNCaP Cell Kill in 72 HRS, {48 HRS} EC 50
Experimental: The cytotoxicities of the cleaveable oligopeptide-doxorubicin conjugates, prepared as described in Examples 3-6, against a line of cells which is known to be killed by unmodified doxorubicin was assessed with an Alamar Blue assay. Specifically, cell cultures of LNCap prostate tumor cells or DuPRO cells in 96 well plates was diluted with medium containing various concentrations of a given conjugate (final plate well volume of 200 μl ). The cells were incubated for 3 days at 37° C., 20 μl of Alamar Blue is added to the assay well. The cells were further incubated and the assay plates were read on a EL-310 ELISA reader at the dual wavelengths of 570 and 600 nm at 4 and 7 hours after addition of Alamar Blue. Relative percentage viability at the various concentration of conjugate tested was then calculated versus control (no conjugate) cultures. If no salt is indicated, the free conjugate was tested.

[3] = target: T1, enzymatically active free PSA; assay type: biochemical; details: oligopeptide; PSA digestion buffer pH8.0; molar ratio to PSA 100 to 1
Experimental: All other oligopeptides were tested as neutral compounds.

Compound	Time to 50% Substrate Cleavage by York PSA [1] [min]	EC50 [2] [µM]	further results
COCCOCCOCC(=O)N[C@@H](CO)C(=O)N[C@@H](CCCCNC(=N)N)C(=O)N[C@@H](Cc1ccc(O)cc1)C(=O)N[C@@H](CCC(N)=O)C(=O)N[C@@H](CO)C(=O)N[C@@H](CC(C)C)C(=O)N[C@H]1C[C@H](O[C@H]2C[C@](O)(C(=O)CO)Cc3c(O)c4c(c(O)c32)C(=O)c2c(OC)cccc2C4=O)O[C@@H](C)[C@H]1O [PEG(2)-SHomoRYQ-SL-DOX (3′), PEG(2)-SerhArgTyrGln-SerLeu-DOX (3′)] ({Decanoyl(3,6,9-trioxa)}-S[hArg]YQSL-{Doxorubicin(3'-N)})	60	–	EC50 ([2]; listed as PEG(2)-ShRYQ-SL-DOX(3′)): 34 µM
COc1cccc2c1C(=O)c1c(O)c3c(c(O)c1C2=O)C[C@@](O)(C(=O)CO)C[C@@H]3O[C@H]1C[C@H](NC(=O)[C@H](CC(C)C)NC(=O)[C@H](CO)NC(=O)[C@H](CCC(N)=O)NC(=O)[C@@H](NC(=O)[C@H](CO)NC(=O)[C@H](CO)NC(=O)[C@H](Cc2cccnc2)NC(=O)[C@H](O)CO)C2CCCCC2)[C@H](O)[C@H](C)O1 [(d)(2,3-dihydroxypropionyl)-3PAL-SerSerChgGln-SerLeu-DOX (3′)] ({Glyceroyl(2R)}-[3Pal]SS[Chg]QSL-{Doxorubicin(3'-N)})	12	5.5	–
COc1cccc2c1C(=O)c1c(O)c3c(c(O)c1C2=O)C[C@@](O)(C(=O)CO)C[C@@H]3O[C@H]1C[C@H](NC(=O)[C@H](CC(C)C)NC(=O)[C@H](CO)NC(=O)[C@H](CCC(N)=O)NC(=O)[C@@H](NC(=O)[C@H](CO)NC(=O)[C@H](C)NC(=O)[C@H](CCCCNC(=N)N)NC(=O)CO)C2CCCCC2)[C@H](O)[C@H](C)O1 [2-hydroxyacetyl-HomoRASChgQ-SL-DOX (3′), 2-hydroxyacetyl-hArgAlaSerChgGln-SerLeu-DOX (3′)] (Glycolyl-[hArg]AS[Chg]QSL-{Doxorubicin(3'-N)})	–	7.9	–
COCCOCCOCC(=O)N[C@@H](C)C(=O)N[C@@H](CO)C(=O)N[C@H](C(=O)N[C@@H](CCC(N)=O)C(=O)N[C@@H](CO)C(=O)N[C@@H](CC(C)C)C(=O)N[C@H]1C[C@H](O[C@H]2C[C@](O)(C(=O)CO)Cc3c(O)c4c(c(O)c32)C(=O)c2c(OC)cccc2C4=O)O[C@@H](C)[C@H]1O)C1CCCCC1 [PEG(2)-ASChgQ-SL-DOX (3′), PEG(2)-AlaSerChgGln-SerLeu-DOX (3′)] ({Decanoyl(3,6,9-trioxa)}-AS[Chg]QSL-{Doxorubicin(3'-N)})	45	5.6	–
COCCOCCOCCOCCOCCOCCOCC(=O)N[C@@H](C)C(=O)N[C@@H](CO)C(=O)N[C@H](C(=O)N[C@@H](CCC(N)=O)C(=O)N[C@@H](CO)C(=O)N[C@@H](CC(C)C)C(=O)N[C@H]1C[C@H](O[C@H]2C[C@](O)(C(=O)CO)Cc3c(O)c4c(c(O)c32)C(=O)c2c(OC)cccc2C4=O)O[C@@H](C)[C@H]1O)C1CCCCC1 [PEG(6)-ASChgQ-SL-DOX (3′), PEG(6)-AlaSerChgGln-SerLeu-DOX (3′)] (X4-AS[Chg]QSL-{Doxorubicin(3'-N)})	160	12	–
COc1cccc2c1C(=O)c1c(O)c3c(c(O)c1C2=O)C[C@@](O)(C(=O)CO)C[C@@H]3O[C@H]1C[C@H](NC(=O)[C@H](CC(C)C)NC(=O)[C@H](CO)NC(=O)[C@H](CO)NC(=O)[C@H](CO)NC(=O)[C@H](CCC(N)=O)NC(=O)[C@H](Cc2ccc(O)cc2)NC(=O)[C@H](CO)NC(=O)CO)[C@H](O)[C@H](C)O1 [2-hydroxyacetyl-SYQ-SSSL-DOX (3′), 2-hydroxyacetyl-SerTyrGln-SerSerSerLeu-DOX (3′)] (Glycolyl-SYQSSSL-{Doxorubicin(3'-N)})	–	18.8	–
COc1cccc2c1C(=O)c1c(O)c3c(c(O)c1C2=O)C[C@@](O)(C(=O)CO)C[C@@H]3O[C@H]1C[C@H](NC(=O)[C@H](CC(C)C)NC(=O)[C@H](CO)NC(=O)[C@H](CCC(N)=O)NC(=O)[C@H](Cc2ccc(O)cc2)NC(=O)[C@H](CO)NC(=O)[C@H](CO)NC(=O)[C@H](CCCCNC(=N)N)NC(=O)CO)[C@H](O)[C@H](C)O1 [2-hydroxyacetyl-HomoRSSYQ-SL-DOX (3′), 2-hydroxyacetyl-hArgSerSerTyrGln-SerLeu-DOX (3′)] (Glycolyl-[hArg]SSYQSL-{Doxorubicin(3'-N)})	16	13.6	–
COCCOCCOCCOCCOCCOCCOCCOCCOCCOCCOCCOCCOCCOCCOCCOCCOCC(=O)N[C@@H](CO)C(=O)N[C@@H](CCCCNC(=N)N)C(=O)N[C@@H](Cc1ccc(O)cc1)C(=O)N[C@@H](CCC(N)=O)C(=O)N[C@@H](CO)C(=O)N[C@@H](CC(C)C)C(=O)N[C@H]1C[C@H](O[C@H]2C[C@](O)(C(=O)CO)Cc3c(O)c4c(c(O)c32)C(=O)c2c(OC)cccc2C4=O)O[C@@H](C)[C@H]1O [PEG(16)-SHomoRYQ-SL-DOX (3′), PEG(16)-SerhArgTyrGln-SerLeu-DOX (3′)] (X2-S[hArg]YQSL-{Doxorubicin(3'-N)})	65	45	–
COCCOCCOCC(=O)N[C@@H](CCCCNC(=N)N)C(=O)N[C@@H](Cc1ccc(O)cc1)C(=O)N[C@@H](CCC(N)=O)C(=O)N[C@@H](CO)C(=O)N[C@@H](CO)C(=O)N[C@@H](CO)C(=O)N[C@@H](CC(C)C)C(=O)N[C@H]1C[C@H](O[C@H]2C[C@](O)(C(=O)CO)Cc3c(O)c4c(c(O)c32)C(=O)c2c(OC)cccc2C4=O)O[C@@H](C)[C@H]1O [PEG(2)-HomoRYQ-SSSL-DOX (3′), PEG(2)-hArgTyrGln-SerSerSerLeu-DOX (3′)] ({Decanoyl(3,6,9-trioxa)}-[hArg]YQSSSL-{Doxorubicin(3'-N)})	–	14	Substrate cleavage by York PSA at 4 HOUR ([1]; 4 hours): 40%
PEG(2)-SerSerSerChgGln-Ser(dLeu)-DOX (3′) ({Decanoyl(3,6,9-trioxa)}-SSS[Chg]QS[dL]-{Doxorubicin(3'-N)}; also: DOX attached at 3′) [PEG(2)-SSSChgQ-S(dL)-DOX (3′)]	–	–	Substrate cleavage by York PSA at 3 HOUR ([1]; 3 hours): 46%
COCCOCCOCC(=O)N[C@@H](CCCCN)C(=O)N[C@@H](Cc1ccc(O)cc1)C(=O)N[C@@H](CCC(N)=O)C(=O)N[C@@H](CO)C(=O)N[C@@H](CO)C(=O)N[C@@H](CO)C(=O)N[C@@H](CC(C)C)C(=O)N[C@H]1C[C@H](O[C@H]2C[C@](O)(C(=O)CO)Cc3c(O)c4c(c(O)c32)C(=O)c2c(OC)cccc2C4=O)O[C@@H](C)[C@H]1O [PEG(2)-KYQ-SSSL-DOX (3′), PEG(2)-LysTyrGln-SerSerSerLeu-DOX (3′)] ({Decanoyl(3,6,9-trioxa)}-KYQSSSL-{Doxorubicin(3'-N)})	–	12.8	–
2,3-dihydroxypropionyl-SSSChgQ-SL-acid: blocked oligopeptide with PSA cleavage site, Example 1 ({2,3‑dihydroxypropionyl}-SSS[Chg]QSL-OH)	–	–	Time to 50% Substrate Cleavage by York PSA [3]: 120 min
(2R,3S) 2,3,4-trihydroxybutanoyl-ShRChgQ-SL-acid: blocked oligopeptide with PSA cleavage site, Example 1 (X5-S[hArg][Chg]QSL-OH)	–	–	Time to 50% Substrate Cleavage by York PSA [3]: 90 min
2,3-dihydroxypropionyl-hSSSChgQ-SL-acid: blocked oligopeptide with PSA cleavage site, Example 1 ({2,3‑dihydroxypropionyl}-[hS]SS[Chg]QSL-OH)	–	–	Time to 50% Substrate Cleavage by York PSA [3]: 160 min
PEG(1)-hRSSChgQ-SL-acid: blocked oligopeptide with PSA cleavage site, Example 1 ({PEG(1)}-[hArg]SS[Chg]QSL-OH)	–	–	Time to 50% Substrate Cleavage by York PSA [3]: 30 min
